Data reported in ChEMBL document CHEMBL1201862, “PubChem BioAssay data set” (2004).
Calls of active or inactive are those of the source. No stated cut-off is given here; in the data, actives have a measured IC50 and inactives only a lower limit.

Target: Envelope glycoprotein gp160 (Human immunodeficiency virus 1, UniProt Q6QLK5)
Assay: cell-free HIV fusion peptide-binding blockers – biochemical, uHTS, fluorescence dequenching, […] (AID 1986)

Chain of Envelope glycoprotein gp160 (Q6QLK5 whole entry, the tested form may be a part): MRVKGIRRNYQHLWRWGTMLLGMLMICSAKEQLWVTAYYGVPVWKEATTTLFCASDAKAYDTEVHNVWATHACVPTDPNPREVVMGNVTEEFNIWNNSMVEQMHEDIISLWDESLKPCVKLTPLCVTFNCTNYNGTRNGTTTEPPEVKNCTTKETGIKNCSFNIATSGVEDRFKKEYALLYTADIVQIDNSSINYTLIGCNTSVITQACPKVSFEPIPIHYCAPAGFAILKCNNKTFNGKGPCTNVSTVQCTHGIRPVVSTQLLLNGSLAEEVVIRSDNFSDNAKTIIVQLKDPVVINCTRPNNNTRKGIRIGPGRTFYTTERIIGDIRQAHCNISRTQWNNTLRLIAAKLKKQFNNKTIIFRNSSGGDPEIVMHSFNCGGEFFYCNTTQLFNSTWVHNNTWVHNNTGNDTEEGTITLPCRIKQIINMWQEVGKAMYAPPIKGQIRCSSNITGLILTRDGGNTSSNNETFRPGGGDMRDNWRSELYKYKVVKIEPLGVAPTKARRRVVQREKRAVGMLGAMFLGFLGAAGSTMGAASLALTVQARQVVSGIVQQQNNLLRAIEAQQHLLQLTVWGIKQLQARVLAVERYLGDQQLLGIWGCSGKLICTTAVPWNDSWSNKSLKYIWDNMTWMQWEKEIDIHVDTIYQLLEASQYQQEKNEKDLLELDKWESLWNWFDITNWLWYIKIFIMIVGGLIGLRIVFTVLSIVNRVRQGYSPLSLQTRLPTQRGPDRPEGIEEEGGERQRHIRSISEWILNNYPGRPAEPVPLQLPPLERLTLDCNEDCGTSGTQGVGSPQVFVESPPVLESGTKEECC

Row | Structure (SMILES) | IC50
1 | O=C(O)c1[nH]c2ccccc2c1C(c1cc(Br)ccc1O)c1c(C(=O)O)[nH]c2ccccc12 | 4.11 µM (active)
2 | COc1cc(/C=N/Nc2ccc(Cl)c(C(=O)O)c2)ccc1OC(=O)c1ccc(F)cc1 | 26.8 µM (active)
